Experimental data from patent US20150105252A1, “SUBSTITUTED PYRAZOLES AS HERBICIDES” (E I DU PONT DE NEMOURS AND COMPANY, priority 2013, published 2015).

Experiments:
pigweed = test: Test A postemergence; assay type: in vivo, Amaranthus retroflexus
Summary of the method: (§1)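 Seeds were sown in a loam soil–sand blend and given a directed soil spray preemergence; postemergence plants at 2–10 cm, one- to two-leaf stage, were sprayed with compound in non-phytotoxic solvent with surfactant. After about 10 days in a greenhouse, injury was visually rated against untreated controls (0 = no effect, 100 = complete control).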

crabgrass, large [1] = test: Test A preemergence; assay type: in vivo, Digitaria sanguinalis; conditions: preemergence; for Crabgrass, Large plant response rating (0 to 100 scale): 125 g ai/ha, visual injury approx. 10 days after treatment; for Crabgrass, Large plant response rating: 500 g ai/ha, visual injury after approx. 10 days, 0 to 100 scale (0 no effect, 100 complete control)
Summary of the method: as §1

barnyardgrass [2] = test: Test C postemergence; assay type: in vivo, Echinochloa crus-galli; conditions: for Plant response rating (scale of 0 to 100 where 0 is no effect and 100 is complete control), Barnyardgrass: Postemergence, 31 g ai/ha, visually evaluated after 13 to 15 days; for Barnyardgrass plant response rating / Plant response rating, Barnyardgrass: postemergence; for Barnyardgrass plant response rating: 62 g ai/ha, scale 0 to 100
Summary of the method: (§2)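 Herbicidal effect is expressed as percent visual control (0–100) judged against untreated plants 13 to 15 days after treatment in the greenhouse. Preemergence pots contained seeds in a soil–sand blend; postemergence plants, 2–18 cm tall, grew in peat-based planting medium.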

barnyardgrass [3] = test: Test A postemergence; assay type: in vivo, Echinochloa crus-galli
Summary of the method: as §1

chickweed = test: Test C postemergence; assay type: in vivo, Stellaria media; conditions: for Plant response rating (scale of 0 to 100 where 0 is no effect and 100 is complete control), Chickweed: Postemergence, 31 g ai/ha, visually evaluated after 13 to 15 days; for Chickweed plant response rating / Plant response rating, Chickweed: postemergence; for Chickweed plant response rating: 62 g ai/ha, scale 0 to 100
Summary of the method: as §2

crabgrass, large [4] = test: Test C preemergence; assay type: in vivo, Digitaria sanguinalis; conditions: preemergence; for Plant response rating, Crabgrass, Large: 125 g ai/ha, scale 0 to 100, 0 = no effect, 100 = complete control
Summary of the method: as §2

velvetleaf = test: Test C preemergence; assay type: in vivo, Abutilon theophrasti; conditions: preemergence; for Plant response rating, Velvetleaf: 125 g ai/ha, scale 0 to 100, 0 = no effect, 100 = complete control
Summary of the method: as §2

ryegrass, Italian = test: Test C preemergence; assay type: in vivo, Lolium multiflorum; conditions: preemergence; for Plant response rating, Ryegrass, Italian: 125 g ai/ha, scale 0 to 100, 0 = no effect, 100 = complete control
Summary of the method: as §2

morningglory = test: Test A preemergence; assay type: in vivo, Ipomoea spp.; conditions: preemergence; for Morningglory plant response rating (0 to 100 scale): 125 g ai/ha, visual injury approx. 10 days after treatment; for Morningglory plant response rating: 500 g ai/ha, visual injury after approx. 10 days, 0 to 100 scale (0 no effect, 100 complete control)
Summary of the method: as §1

waterhemp = test: Test C preemergence; assay type: in vivo, Amaranthus rudis; conditions: preemergence; for Plant response rating, Waterhemp: 125 g ai/ha, scale 0 to 100, 0 = no effect, 100 = complete control
Summary of the method: as §2

johnsongrass = test: Test C preemergence; assay type: in vivo, Sorghum halepense; conditions: preemergence; for Plant response rating, Johnsongrass: 125 g ai/ha, scale 0 to 100, 0 = no effect, 100 = complete control
Summary of the method: as §2

foxtail, giant = test: Test C preemergence; assay type: in vivo, Setaria faberii; conditions: preemergence; for Plant response rating, Foxtail, Giant: 125 g ai/ha, scale 0 to 100, 0 = no effect, 100 = complete control
Summary of the method: as §2

crabgrass, large [5] = test: Test C postemergence; assay type: in vivo, Digitaria sanguinalis; conditions: for Plant response rating (scale of 0 to 100 where 0 is no effect and 100 is complete control), Crabgrass, Large: Postemergence, 31 g ai/ha, visually evaluated after 13 to 15 days; for Crabgrass, Large plant response rating / Plant response rating, Crabgrass, Large: postemergence; for Crabgrass, Large plant response rating: 62 g ai/ha, scale 0 to 100
Summary of the method: as §2

kochia = test: Test C postemergence; assay type: in vivo, Kochia scoparia; conditions: for Plant response rating (scale of 0 to 100 where 0 is no effect and 100 is complete control), Kochia: Postemergence, 31 g ai/ha, visually evaluated after 13 to 15 days; for Kochia plant response rating / Plant response rating, Kochia: postemergence; for Kochia plant response rating: 62 g ai/ha, scale 0 to 100
Summary of the method: as §2

[6] = Postemergence, 500 g ai/ha, 0 to 100 scale (0 no effect, 100 complete control)
[7] = postemergence, 125 g ai/ha, about 10 days, visual rating on 0 to 100 scale (0 no effect, 100 complete control)
[8] = 250 g ai/ha, scale 0 to 100 (0 no effect, 100 complete control)
[9] = 125 g ai/ha, scale 0 to 100, 0 no effect, 100 complete control
[10] = 31 g ai/ha, visual rating, scale 0 to 100 (0 no effect, 100 complete control), 13 to 15 days
[11] = 62 g ai/ha, scale 0 to 100 (0 no effect, 100 complete control), 13 to 15 days
[12] = 250 g ai/ha, scale 0 to 100, 0 is no effect, 100 is complete control

CCNC(=O)c1cc(CC)n(Cc2cc(C(F)(F)F)nn2C)n1 [Compound 154]
Pigweed plant response rating (pigweed; [6]): 100 | Pigweed plant response rating (pigweed; [7]): 100 | Crabgrass, Large plant response rating (0 to 100 scale) (crabgrass, large [1]): 100 | Crabgrass, Large plant response rating (crabgrass, large [1]): 100 | Plant response rating (scale of 0 to 100 where 0 is no effect and 100 is complete control), Barnyardgrass (barnyardgrass [2]): 5 | Barnyardgrass plant response rating (barnyardgrass [2]): 5 | Plant response rating, Barnyardgrass (barnyardgrass [2]; [8]): 10 | Plant response rating, Barnyardgrass (barnyardgrass [2]; [9]): 5 | Barnyardgrass plant response rating (barnyardgrass [3]; [6]): 100 | Barnyardgrass plant response rating (barnyardgrass [3]; [7]): 100 | Plant response rating (scale of 0 to 100 where 0 is no effect and 100 is complete control), Chickweed (chickweed): 60 | Chickweed plant response rating (chickweed): 70 | Plant response rating, Chickweed (chickweed; [8]): 90 | Plant response rating, Chickweed (chickweed; [9]): 60 | Crabgrass, Large plant response rating (crabgrass, large [4]; [10]): 100 | Crabgrass, Large plant response rating (crabgrass, large [4]; [11]): 100 | Plant response rating, Crabgrass, Large (crabgrass, large [4]; 13 to 15 days): 100 | Crabgrass, Large plant response rating (crabgrass, large [4]; [12]): 100 | Velvetleaf plant response rating (velvetleaf; [10]): 10 | Velvetleaf plant response rating (velvetleaf; [11]): 40 | Plant response rating, Velvetleaf (velvetleaf; 13 to 15 days): 90 | Velvetleaf plant response rating (velvetleaf; [12]): 100 | Ryegrass, Italian plant response rating (ryegrass, Italian; [10]): 5 | Ryegrass, Italian plant response rating (ryegrass, Italian; [11]): 10 | Plant response rating, Ryegrass, Italian (ryegrass, Italian; 13 to 15 days): 50 | Ryegrass, Italian plant response rating (ryegrass, Italian; [12]): 90 | Morningglory plant response rating (0 to 100 scale) (morningglory): 100 | Morningglory plant response rating (morningglory): 100 | Waterhemp plant response rating (waterhemp; [10]): 85 | Waterhemp plant response rating (waterhemp; [11]): 100 | Plant response rating, Waterhemp (waterhemp; 13 to 15 days): 100 | Waterhemp plant response rating (waterhemp; [12]): 100 | Johnsongrass plant response rating (johnsongrass; [10]): 5 | Johnsongrass plant response rating (johnsongrass; [11]): 5 | Plant response rating, Johnsongrass (johnsongrass; 13 to 15 days): 55 | Johnsongrass plant response rating (johnsongrass; [12]): 85 | Foxtail, Giant plant response rating (foxtail, giant; [10]): 30 | Foxtail, Giant plant response rating (foxtail, giant; [11]): 90 | Plant response rating, Foxtail, Giant (foxtail, giant; 13 to 15 days): 100 | Foxtail, Giant plant response rating (foxtail, giant; [12]): 100 | Plant response rating (scale of 0 to 100 where 0 is no effect and 100 is complete control), Crabgrass, Large (crabgrass, large [5]): 5 | Crabgrass, Large plant response rating (crabgrass, large [5]): 5 | Plant response rating, Crabgrass, Large (crabgrass, large [5]; [8]): 10 | Plant response rating, Crabgrass, Large (crabgrass, large [5]; [9]): 5 | Plant response rating (scale of 0 to 100 where 0 is no effect and 100 is complete control), Kochia (kochia): 80 | Kochia plant response rating (kochia): 85 | Plant response rating, Kochia (kochia; [8]): 95 | Plant response rating, Kochia (kochia; [9]): 85

CCCNC(=O)c1cc(OCC)n(Cc2ccnc(C(F)(F)F)c2)n1 [Compound 187]
Pigweed plant response rating (pigweed; Postemergence, 125 g ai/ha, 0 to 100 scale, 0 no effect, 100 complete control): 100 | Pigweed plant response rating (pigweed; [6]): 90 | Crabgrass, Large plant response rating (0 to 100 scale) (crabgrass, large [1]): 100 | Crabgrass, Large plant response rating (crabgrass, large [1]): 100 | Plant response rating (scale of 0 to 100 where 0 is no effect and 100 is complete control), Barnyardgrass (barnyardgrass [2]): 5 | Barnyardgrass plant response rating (barnyardgrass [2]): 10 | Plant response rating, Barnyardgrass (barnyardgrass [2]; [8]): 60 | Plant response rating, Barnyardgrass (barnyardgrass [2]; [9]): 15 | Barnyardgrass plant response rating (barnyardgrass [3]; [6]): 90 | Barnyardgrass plant response rating (barnyardgrass [3]; [7]): 90 | Plant response rating (scale of 0 to 100 where 0 is no effect and 100 is complete control), Chickweed (chickweed): 98 | Chickweed plant response rating (chickweed): 70 | Plant response rating, Chickweed (chickweed; [8]): 85 | Plant response rating, Chickweed (chickweed; [9]): 80 | Crabgrass, Large plant response rating (crabgrass, large [4]; [10]): 100 | Crabgrass, Large plant response rating (crabgrass, large [4]; [11]): 100 | Plant response rating, Crabgrass, Large (crabgrass, large [4]; 13 to 15 days): 100 | Crabgrass, Large plant response rating (crabgrass, large [4]; [12]): 100 | Velvetleaf plant response rating (velvetleaf; [10]): 95 | Velvetleaf plant response rating (velvetleaf; [11]): 100 | Plant response rating, Velvetleaf (velvetleaf; 13 to 15 days): 100 | Velvetleaf plant response rating (velvetleaf; [12]): 100 | Ryegrass, Italian plant response rating (ryegrass, Italian; [10]): 50 | Ryegrass, Italian plant response rating (ryegrass, Italian; [11]): 80 | Plant response rating, Ryegrass, Italian (ryegrass, Italian; 13 to 15 days): 90 | Ryegrass, Italian plant response rating (ryegrass, Italian; [12]): 90 | Morningglory plant response rating (0 to 100 scale) (morningglory): 100 | Morningglory plant response rating (morningglory): 100 | Waterhemp plant response rating (waterhemp; [10]): 100 | Waterhemp plant response rating (waterhemp; [11]): 100 | Plant response rating, Waterhemp (waterhemp; 13 to 15 days): 100 | Waterhemp plant response rating (waterhemp; [12]): 100 | Johnsongrass plant response rating (johnsongrass; [10]): 75 | Johnsongrass plant response rating (johnsongrass; [11]): 98 | Plant response rating, Johnsongrass (johnsongrass; 13 to 15 days): 100 | Johnsongrass plant response rating (johnsongrass; [12]): 100 | Foxtail, Giant plant response rating (foxtail, giant; [10]): 100 | Foxtail, Giant plant response rating (foxtail, giant; [11]): 100 | Plant response rating, Foxtail, Giant (foxtail, giant; 13 to 15 days): 100 | Foxtail, Giant plant response rating (foxtail, giant; [12]): 100 | Plant response rating (scale of 0 to 100 where 0 is no effect and 100 is complete control), Crabgrass, Large (crabgrass, large [5]): 10 | Crabgrass, Large plant response rating (crabgrass, large [5]): 20 | Plant response rating, Crabgrass, Large (crabgrass, large [5]; [8]): 95 | Plant response rating, Crabgrass, Large (crabgrass, large [5]; [9]): 60 | Plant response rating (scale of 0 to 100 where 0 is no effect and 100 is complete control), Kochia (kochia): 85 | Kochia plant response rating (kochia): 90 | Plant response rating, Kochia (kochia; [8]): 90 | Plant response rating, Kochia (kochia; [9]): 90
